Experimental data taken from patent US20250215029A1 (Recludix Pharma, Inc., priority 2022, published 2025).

How the values were obtained:
[1] = molecular target: T1, Recombinant STAT3 protein (STAT3 (G127-I722)) (Homo sapiens, UniProt P40763); assay: STAT3 Fluorescence Polarization (FP) Assay; assay type: binding; settings: STAT3 25 nM, probe 5-FAM-GpYLPQTV-NH2 2 nM, 45-minute incubation; read-out: STAT3 (FP assay IC50)
T1 construct: Recombinant STAT3 protein (STAT3 (G127-I722))
In short: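 Compounds in serial dilution receive a premix of STAT3 (G127-I722, 25 nM) and fluorescent phosphotyrosine peptide 5-FAM-GpYLPQTV-NH2 (2 nM) at pH 7.4. After 45 min at room temperature, FP is measured and IC50 derived by nonlinear regression.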

[2] = molecular target: T2, Recombinant STAT6 protein (STAT6 (W123-T658)) (Homo sapiens, UniProt P42226); assay: STAT6 Fluorescence Polarization (FP) Assay; assay type: binding; settings: STAT6 250 nM, probe 5-FAM-Ap[…]-NH2 2 nM, 45-minute incubation; read-out: STAT6 (FP assay IC50)
T2 construct: Recombinant STAT6 protein (STAT6 (W123-T658))
T2 sequence (P42226 123-658): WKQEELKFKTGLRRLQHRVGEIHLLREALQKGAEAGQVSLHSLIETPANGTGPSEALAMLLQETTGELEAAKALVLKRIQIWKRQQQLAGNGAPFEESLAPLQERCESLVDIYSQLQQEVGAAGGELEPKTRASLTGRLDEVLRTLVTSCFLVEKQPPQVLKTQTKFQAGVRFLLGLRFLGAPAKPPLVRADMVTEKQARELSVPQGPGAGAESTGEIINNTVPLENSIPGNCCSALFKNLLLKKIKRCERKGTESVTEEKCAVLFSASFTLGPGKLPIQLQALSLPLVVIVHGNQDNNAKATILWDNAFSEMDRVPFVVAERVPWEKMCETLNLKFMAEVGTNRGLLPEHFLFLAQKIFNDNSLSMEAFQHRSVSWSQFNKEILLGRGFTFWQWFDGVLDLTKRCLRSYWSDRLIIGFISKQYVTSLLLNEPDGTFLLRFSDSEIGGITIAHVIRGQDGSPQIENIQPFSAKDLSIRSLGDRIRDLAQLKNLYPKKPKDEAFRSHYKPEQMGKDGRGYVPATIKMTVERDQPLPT
In short: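 Displacement of a fluorescent phosphotyrosine peptide (2 nM) from 250 nM STAT6 (W123-T658) is measured by polarization after a 45-minute room-temperature incubation. Compounds are titrated serially at 1% DMSO, and IC50 values derive from regression of mP on log concentration.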

T1 sequence (P40763 127-722): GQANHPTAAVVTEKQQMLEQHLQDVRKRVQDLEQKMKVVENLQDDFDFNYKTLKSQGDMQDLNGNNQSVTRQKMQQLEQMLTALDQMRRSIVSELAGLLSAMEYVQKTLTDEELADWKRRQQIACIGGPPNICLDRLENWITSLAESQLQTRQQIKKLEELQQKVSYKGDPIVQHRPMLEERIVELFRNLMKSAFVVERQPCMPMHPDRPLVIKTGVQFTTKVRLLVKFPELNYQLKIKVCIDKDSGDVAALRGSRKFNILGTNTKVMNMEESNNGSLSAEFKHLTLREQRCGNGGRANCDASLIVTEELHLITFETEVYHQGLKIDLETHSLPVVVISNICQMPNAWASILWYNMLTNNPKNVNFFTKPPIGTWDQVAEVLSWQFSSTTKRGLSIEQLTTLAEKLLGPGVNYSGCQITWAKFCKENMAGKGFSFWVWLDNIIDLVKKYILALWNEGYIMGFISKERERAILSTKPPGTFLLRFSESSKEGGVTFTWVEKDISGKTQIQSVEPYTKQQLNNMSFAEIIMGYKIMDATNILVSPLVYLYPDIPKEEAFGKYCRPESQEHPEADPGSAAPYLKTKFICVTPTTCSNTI

Structure (SMILES)	IC50 [1]	IC50 [2]
Cc1[nH]nc2ccc(NC(=O)[C@@H]3CC[C@@H]4CCCC[C@H](NC(=O)c5cc6cc(C(F)(F)P(=O)(O)O)ccc6s5)C(=O)N43)cc12 [Compound 59, (difluoro(2-(((3S,6S,10aS)-3-((3-methyl-2H-indazol-5-yl)carbamoyl)-5-oxodecahydro-pyrrolo[1,2-a]azocin-6-yl)carbamoyl)benzo[b]thiophen-5-yl)methyl) phosphonic acid]	100 to 1000 nM	300 to 3000 nM
O=C(N[C@H]1CCC[C@H]2CCC[C@@H](C(=O)N3CC(n4ccnc4)C3)N2C1=O)c1cc2cc(C(F)(F)P(=O)(O)O)ccc2s1 [Compound 60, ((2-(((4S,7S,10aS)-4-(3-(1H-imidazol-1-yl)azetidine-1-carbonyl)-6-oxodecahydropyrido [1,2-a]azepin-7-yl)carbamoyl)benzo[b]thiophen-5-yl)difluoromethyl) phosphonic acid]	< 100 nM	3000 to 30000 nM
N=S1(=O)CCC(C2CN(C(=O)[C@@H]3CC[C@@H]4CCCC[C@H](NC(=O)c5cc6cc(C(F)(F)P(=O)(O)O)ccc6s5)C(=O)N43)C2)CC1 (stereo partly drawn) [Compound 61, (difluoro(2-(((3S,6S,10aS)-3-(3-(1-imino-1-oxidohexahydro-1l6-thiopyran-4-yl)azetidine-1-carbonyl)-5-oxodecahydropyrrolo [1,2-a]azocin-6-yl)carbamoyl)benzo[b]thiophen-5-yl)methyl) phosphonic acid]	100 to 1000 nM	300 to 3000 nM
O=C(N[C@H]1CCCC[C@H]2CCC[C@@H](C(=O)N3CC(n4ccnc4)C3)N2C1=O)c1cc2cc(C(F)(F)P(=O)(O)O)ccc2s1 [Compound 62, ((2-(((4S,7S,11aS)-4-(3-(1H-imidazol-1-yl)azetidine-1-carbonyl)-6-oxodecahydro-2H-pyrido[1,2-a]azocin-7-yl)carbamoyl)benzo[b]thiophen-5-yl)difluoromethyl) phosphonic acid]	> 10000 nM	> 30000 nM
C#Cc1ncoc1C1CN(C(=O)[C@@H]2CC[C@@H]3CCCC[C@H](NC(=O)c4cc5cc(C(F)(F)P(=O)(O)O)ccc5s4)C(=O)N32)C1 [Compound 64, ((2-(((3S,6S,10aS)-3-(3-(4-ethynyloxazol-5-yl)azetidine-1-carbonyl)-5-oxodecahydropyrrolo [1,2-a]azocin-6-yl)carbamoyl)benzo[b]thiophen-5-yl)difluoromethyl) phosphonic acid]	< 100 nM	300 to 3000 nM
Cn1ccc(C2CN(C(=O)[C@@H]3CC[C@@H]4CCCC[C@H](NC(=O)c5cc6cc(C(F)(F)P(=O)(O)O)ccc6s5)C(=O)N43)C2)n1 [Compound 65, (difluoro(2-(((3S,6S,10S)-3-(3-(1-methyl-1H-pyrazol-3-yl)azetidine-1-carbonyl)-5-oxodecahydropyrrolo [1,2-a]azocin-6-yl)carbamoyl)benzo[b]thiophen-5-yl)methyl) phosphonic acid]	100 to 1000 nM	300 to 3000 nM
CS(=N)(=O)CC1CN(C(=O)[C@@H]2CC[C@@H]3CCCC[C@H](NC(=O)c4cc5cc(C(F)(F)P(=O)(O)O)ccc5s4)C(=O)N32)C1 (stereo partly drawn) [Compound 66, (difluoro(2-(((3S,6S,10aS)-3-(3-((S-methyl-sulfonimidoyl)methyl)azetidine-1-carbonyl)-5-oxodecahydropyrrolo [1,2-a]azocin-6-yl)carbamoyl)benzo[b]thiophen-5-yl)methyl) phosphonic acid]	< 100 nM	3000 to 30000 nM
O=C(N[C@H]1CCCC[C@H]2CC[C@@H](C(=O)N3CC(c4c[nH]cn4)C3)N2C1=O)c1cc2cc(C(F)(F)P(=O)(O)O)ccc2s1 [Compound 67, ((2-(((3S,6S,10aS)-3-(3-(1H-imidazol-4-yl)azetidine-1-carbonyl)-5-oxodecahydro-pyrrolo[1,2-a]azocin-6-yl)carbamoyl)benzo[b]thiophen-5-yl)difluoromethyl) phosphonic acid]	< 100 nM	300 to 3000 nM
Cc1cnn(C2CN(C(=O)[C@@H]3CC[C@@H]4CCCC[C@H](NC(=O)c5cc6cc(C(F)(F)P(=O)(O)O)ccc6s5)C(=O)N43)C2)c1 [Compound 68, (difluoro(2-(((3S,6S,10aS)-3-(3-(4-methyl-1H-pyrazol-1-yl)azetidine-1-carbonyl)-5-oxodecahydropyrrolo [1,2-a]azocin-6-yl)carbamoyl)benzo[b]thiophen-5-yl)methyl) phosphonic acid]	100 to 1000 nM	3000 to 30000 nM
Cn1nccc1C=C1CN(C(=O)[C@@H]2CC[C@@H]3CCCC[C@H](NC(=O)c4cc5cc(C(F)(F)P(=O)(O)O)ccc5s4)C(=O)N32)C1 [Compound 69, (difluoro(2-(((3S,6S,10aS)-3-(3-((1-methyl-1H-pyrazol-5-yl)methylene)azetidine-1-carbonyl)-5-oxodecahydropyrrolo [1,2-a]azocin-6-yl)carbamoyl)benzo[b]thiophen-5-yl)methyl) phosphonic acid]	100 to 1000 nM	300 to 3000 nM
N=S1(=O)CC2(CN(C(=O)[C@@H]3CC[C@@H]4CCCC[C@H](NC(=O)c5cc6cc(C(F)(F)P(=O)(O)O)ccc6s5)C(=O)N43)C2)C1 [Compound 70, (difluoro(2-(((3S,6S,10aS)-3-(2-imino-2-oxido-2l6-thia-6-azaspiro[3.3]heptane-6-carbonyl)-5-oxodecahydropyrrolo [1,2-a]azocin-6-yl)carbamoyl)benzo[b]thiophen-5-yl)methyl) phosphonic acid]	100 to 1000 nM	3000 to 30000 nM
O=C(N[C@H]1CCCC[C@H]2CC[C@@H](C(=O)N3CC4(CNS(=O)(=O)C4)C3)N2C1=O)c1cc2cc(C(F)(F)P(=O)(O)O)ccc2s1 [Compound 71, ((2-(((3S,6S,10aS)-3-(6,6-dioxido-6-thia-2,7-diazaspiro[3.4]octane-2-carbonyl)-5-oxodecahydropyrrolo [1,2-a]azocin-6-yl)carbamoyl)benzo[b]thiophen-5-yl)difluoromethyl) phosphonic acid]	100 to 1000 nM	300 to 3000 nM
O=C(N[C@H]1CCCC[C@H]2CC[C@@H](C(=O)N3CC4(CC(C5CC5)=NO4)C3)N2C1=O)c1cc2cc(C(F)(F)P(=O)(O)O)ccc2s1 [Compound 72, ((2-(((3S,6S,10aS)-3-(7-cyclopropyl-5-oxa-2,6-diazaspiro[3.4]oct-6-ene-2-carbonyl)-5-oxodecahydropyrrolo [1,2-a]azocin-6-yl)carbamoyl)benzo[b]thiophen-5-yl)difluoromethyl) phosphonic acid]	100 to 1000 nM	300 to 3000 nM
CS(=N)(=O)C1CN(C(=O)[C@@H]2CC[C@@H]3CCCC[C@H](NC(=O)c4cc5cc(C(F)(F)P(=O)(O)O)ccc5s4)C(=O)N32)C1 (stereo partly drawn) [Compound 73, (difluoro(2-(((3S,6S,10aS)-3-(3-(S-methylsulfonimidoyl)azetidine-1-carbonyl)-5-oxodecahydropyrrolo [1,2-a]azocin-6-yl)carbamoyl)benzo[b]thiophen-5-yl)methyl) phosphonic acid]	100 to 1000 nM	3000 to 30000 nM
O=C(N[C@H]1CCCCC[C@H]2[C@H](O)C[C@@H](C(=O)N3CC(C(=O)N4CCOCC4)C3)N2C1=O)c1cc2cc(C(F)(F)P(=O)(O)O)ccc2s1 [Compound 77, (difluoro(2-(((1R,3S,6S, 11aS)-1-hydroxy-3-(3-(morpholine-4-carbonyl)azetidine-1-carbonyl)-5-oxodecahydro-1H-pyrrolo[1,2-a]azonin-6-yl)carbamoyl)benzo[b]thiophen-5-yl)methyl) phosphonic acid]	100 to 1000 nM	3000 to 30000 nM
O=C(N[C@H]1CCC[C@H]2CC[C@@H](C(=O)N3CC(c4cccnc4)C3)N2C1=O)c1cc2cc(CP(=O)(O)O)ccc2s1 [Compound 78, ((2-(((3S,6S,9aS)-5-oxo-3-(3-(pyridin-3-yl)azetidine-1-carbonyl)octahydro-1H-pyrrolo[1,2-a]azepin-6-yl)carbamoyl)benzo[b]thiophen-5-yl)methyl) phosphonic acid]	100 to 1000 nM	> 30000 nM
C[C@@H]1[C@@H](n2ccnc2)CN1C(=O)[C@@H]1CC[C@@H]2CCC[C@H](NC(=O)c3cc4cc(C(F)(F)P(=O)(O)O)ccc4s3)C(=O)N21 [Compound 81, ((2-(((3S,6S,9aS)-3-((2R,3S)-3-(1H-imidazol-1-yl)-2-methylazetidine-1-carbonyl)-5-oxooctahydro-1H-pyrrolo[1,2-a]azepin-6-yl)carbamoyl)benzo[b]thiophen-5-yl)difluoromethyl) phosphonic acid]	< 100 nM	300 to 3000 nM
